Our source for the Ki values is patent US7589104B2, “Tricyclic-bridged piperidinyline derivatives as §-opioid modulators” (Janssen Pharmaceutica NV, priority 2004, dated 2009).

One assay addresses T1, mu opioid receptor (Rattus norvegicus, UniProt P33535).
T1 construct: Following incubation with the mu selective peptide ligand, ˜0.8 nM [^3H]DAMGO; from tissue; host or cells: forebrain of male Wistar rats (Charles River)
Briefly: Rat Brain Mu Opioid Receptor Binding Assay.

In another assay the target is T2, delta opioid receptor (Rattus norvegicus, UniProt P33533).
T2 construct: from tissue; host or cells: forebrain of male Wistar rats (Charles River)
T2 sequence (P33533 whole entry): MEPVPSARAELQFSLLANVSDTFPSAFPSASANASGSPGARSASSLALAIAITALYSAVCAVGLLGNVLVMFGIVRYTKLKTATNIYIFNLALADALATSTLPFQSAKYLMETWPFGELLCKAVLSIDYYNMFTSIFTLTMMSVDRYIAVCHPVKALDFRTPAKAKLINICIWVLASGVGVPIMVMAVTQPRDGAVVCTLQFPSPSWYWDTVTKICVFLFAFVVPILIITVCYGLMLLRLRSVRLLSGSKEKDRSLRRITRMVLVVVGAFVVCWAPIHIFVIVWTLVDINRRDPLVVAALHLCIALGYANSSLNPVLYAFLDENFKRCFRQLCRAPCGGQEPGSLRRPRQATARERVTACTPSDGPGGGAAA
Nature of the assay: Rat Brain Delta Opioid Receptor Binding Assay.

The mark [1] stands for this setting: rat forebrain membranes, [3H]DAMGO, read-out: mu (Ki).

Like-named read-outs stand apart in the source and are kept apart here.

T1 sequence (P33535 whole entry): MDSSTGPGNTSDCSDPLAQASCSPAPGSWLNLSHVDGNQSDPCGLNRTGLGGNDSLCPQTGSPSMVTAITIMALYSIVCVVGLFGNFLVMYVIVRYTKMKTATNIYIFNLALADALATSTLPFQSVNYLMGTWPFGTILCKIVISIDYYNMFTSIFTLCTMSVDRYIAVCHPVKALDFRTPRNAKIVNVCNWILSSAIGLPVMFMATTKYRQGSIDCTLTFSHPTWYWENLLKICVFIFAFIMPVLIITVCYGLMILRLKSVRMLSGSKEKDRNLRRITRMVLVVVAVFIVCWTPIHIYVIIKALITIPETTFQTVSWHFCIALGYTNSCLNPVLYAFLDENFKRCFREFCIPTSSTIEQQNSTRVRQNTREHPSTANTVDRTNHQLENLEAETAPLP

Consider `CCN(CC)C(=O)c1ccc2c(c1)Oc1c(-c3ccccc3)cccc1C2C1CC2CCC(C1)N2` (stereo not drawn) [Compound 7d, 9-(8-Aza-bicyclo[3.2.1]oct-3-yl)-5-phenyl-9H-xanthene-3-carboxylic acid diethylamide], for which the results for the Ki at mu opioid receptor (setting [1]) and at delta opioid receptor were 8200 nM and 91 nM, respectively.

Take `CC(=O)Nc1ccccc1-c1ccc2c(c1)Oc1ccccc1C2C1CC2CCC(C1)N2Cc1ccccc1` (stereo not drawn) [Compound 16b, N-{2-[9-(8-Benzyl-8-aza-bicyclo[3.2.1]oct-3-yl)-9H-xanthen-3-yl]-phenyl}-acetamide]: the Ki at mu opioid receptor and on delta opioid receptor was > 10000 nM throughout.

For `Oc1cccc2c1Oc1cc(-c3cccnc3)ccc1C2C1CC2CCC(C1)N2` (stereo not drawn) [Compound 8k, 9-(8-Aza-bicyclo[3.2.1]oct-3-yl)-6-pyridin-3-yl-9H-xanthen-4-ol], the Ki at mu opioid receptor amounted to 27.2 nM; on delta opioid receptor, 9.61 nM.

With `CCN(CC)C(=O)c1ccc2c(c1)Oc1c(Cl)cccc1C2C1CC2CCC(C1)N2` (stereo not drawn) [Compound 6i, 9-(8-Aza-bicyclo[3.2.1]oct-3-yl)-5-chloro-9H-xanthene-3-carboxylic acid diethylamide], the Ki on mu opioid receptor was > 10000 nM; at delta opioid receptor, 3350 nM.

In the case of `CC(=O)Nc1ccccc1-c1ccc2c(c1)Oc1ccccc1C2C1CC2CCC(C1)N2Cc1ccccn1` (stereo not drawn) [Compound 15b, N-{2-[9-(8-Pyridin-2-ylmethyl-8-aza-bicyclo[3.2.1]oct-3-yl)-9H-xanthen-3-yl]-phenyl}-acetamide], the Ki is 947 nM at mu opioid receptor and 102 nM on delta opioid receptor.

As for `c1ccc2c(c1)Oc1cc(-c3cnc4ccccc4c3)ccc1C2C1CC2CCC(C1)N2` (stereo not drawn) [Compound 8b, 3-[9-(8-Aza-bicyclo[3.2.1]oct-3-yl)-9H-xanthen-3-yl]-quinoline], the Ki was determined as 27700 nM on mu opioid receptor and 4860 nM on delta opioid receptor.

Take `c1ccc(CCN2C3CCC2CC(C2c4ccccc4Oc4cc(-c5cccnc5)ccc42)C3)cc1` (stereo not drawn) [Compound 12b, 8-Phenethyl-3-(3-pyridin-3-yl-9H-xanthen-9-yl)-8-aza-bicyclo[3.2.1]octane]: the Ki on mu opioid receptor stood at 293 nM; on delta opioid receptor, 794 nM.

With `CCN(CC)C(=O)c1ccc2c(c1)Oc1ccccc1C2C1CC2CCC(C1)N2Cc1ncc[nH]1` (stereo not drawn) [Compound 16a, 9-[8-(1H-Imidazol-2-ylmethyl)-8-aza-bicyclo[3.2.1]oct-3-yl]-9H-xanthene-3-carboxylic acid diethylamide], the Ki at mu opioid receptor was found to be 2000 nM; at delta opioid receptor it was 114 nM.

For the compound `CCN(CC)C(=O)c1ccc2c(c1)Oc1c(C)cccc1C2C1CC2CCC(C1)N2` (stereo not drawn) [Compound 6h, 9-(8-Aza-bicyclo[3.2.1]oct-3-yl)-5-methyl-9H-xanthene-3-carboxylic acid diethylamide], the Ki was determined as 4700 nM at mu opioid receptor and 73 nM on delta opioid receptor.

As for `CC(=O)Nc1ccccc1-c1ccc2c(c1)Oc1ccccc1C2C1CC2CCC(C1)N2Cc1ccoc1` (stereo not drawn) [Compound 13b, N-{2-[9-(8-Furan-3-ylmethyl-8-aza-bicyclo[3.2.1]oct-3-yl)-9H-xanthen-3-yl]-phenyl}-acetamide], the Ki was found to be 1490 nM on mu opioid receptor and 38.7 nM at delta opioid receptor.

For the compound `CCN(CC)C(=O)c1ccc2c(c1)Oc1ccccc1C2C1CC2CCC(C1)N2CCc1ccccc1` (stereo not drawn) [Compound 12a, 9-(8-Phenethyl-8-aza-bicyclo[3.2.1]oct-3-yl)-9H-xanthene-3-carboxylic acid diethylamide], the Ki was determined as 667 nM on mu opioid receptor and 200 nM on delta opioid receptor.

As to `CCN(CC)C(=O)c1ccc2c(c1)Oc1ccc(F)cc1C2C1CC2CCC(C1)N2` (stereo not drawn) [Compound 7e, 9-(8-Aza-bicyclo[3.2.1]oct-3-yl)-7-fluoro-9H-xanthene-3-carboxylic acid diethylamide], the Ki at mu opioid receptor came to 44000 nM; on delta opioid receptor, 294 nM.

For `CCN(CC)C(=O)c1ccc2c(c1)Oc1ccccc1C2C1CC2CCC(C1)N2Cc1ccco1` (stereo not drawn) [Compound 13a, 9-(8-Furan-2-ylmethyl-8-aza-bicyclo[3.2.1]oct-3-yl)-9H-xanthene-3-carboxylic acid diethylamide], the Ki was 3020 nM on mu opioid receptor and 42 nM at delta opioid receptor.

`CCN(CC)C(=O)c1ccc2c(c1)Oc1ccccc1C2C1CC2CCC(C1)N2` (stereo not drawn) [Compound 9a, 9-(8-Aza-bicyclo[3.2.1]oct-3-yl)-9H-xanthene-3-carboxylic acid diethylamide]: the values for the Ki on mu opioid receptor and on delta opioid receptor were 6450 nM and 140 nM, respectively.

Take `COc1cccc2c1Oc1cc(-c3ccccc3NC(C)=O)ccc1C2C1CC2CCC(C1)N2` (stereo not drawn) [Compound 2l, N-{2-[9-(8-Aza-bicyclo[3.2.1]oct-3-yl)-5-methoxy-9H-xanthen-3-yl]-phenyl}-acetamide]: the Ki was 3700 nM at mu opioid receptor (setting [1]) and 180 nM at delta opioid receptor (rat forebrain membranes, [3H]DPDPE or [3H]naltrindole, read-out: delta (Ki)).

Consider `CC(=O)Nc1ccccc1-c1ccc2c(c1)Oc1c(O)cccc1C2C1CC2CCC(C1)N2` (stereo not drawn) [Compound 3l, N-{2-[9-(8-Aza-bicyclo[3.2.1]oct-3-yl)-5-hydroxy-9H-xanthen-3-yl]-phenyl}-acetamide], for which the values for the Ki at mu opioid receptor and at delta opioid receptor were 20.4 nM and 1.55 nM, respectively.

As for `CCN(CC)C(=O)c1ccc2c(c1)Oc1ccc(Br)cc1C2C1CC2CCC(C1)N2` (stereo not drawn) [Compound 7f, 9-(8-Aza-bicyclo[3.2.1]oct-3-yl)-7-bromo-9H-xanthene-3-carboxylic acid diethylamide], the Ki was determined as 1750 nM on mu opioid receptor and 174 nM on delta opioid receptor.

On to `c1ccc(CN2C3CCC2CC(C2c4ccccc4Oc4cc(-c5cccnc5)ccc42)C3)nc1` (stereo not drawn) [Compound 10b, 8-Pyridin-2-ylmethyl-3-(3-pyridin-3-yl-9H-xanthen-9-yl)-8-aza-bicyclo[3.2.1]octane], for which the Ki on mu opioid receptor stood at 350 nM; at delta opioid receptor, 211 nM.

`CC(=O)Nc1ccccc1-c1ccc2c(c1)Oc1ccccc1C2C1CC2CCC(C1)N2Cc1cccs1` (stereo not drawn) [Compound 14b, N-{2-[9-(8-Thiophen-2-ylmethyl-8-aza-bicyclo[3.2.1]oct-3-yl)-9H-xanthen-3-yl]-phenyl}-acetamide]: the Ki at mu opioid receptor came to 2150 nM; at delta opioid receptor, 78.1 nM.

For `c1cncc(-c2ccc3c(c2)Oc2ccccc2C3C2CC3CCC(C2)N3)c1` (stereo not drawn) [Compound 3b, 3-(3-Pyridin-3-yl-9H-xanthen-9-yl)-8-aza-bicyclo[3.2.1]octane], the Ki came out at 4440 nM on mu opioid receptor and 3150 nM on delta opioid receptor.

On to `c1ccc(CCN2C3CCC2CC(C2c4ccccc4Oc4cc(-c5ccncc5)ccc42)C3)cc1` (stereo not drawn) [Compound 24b, 8-Phenethyl-3-(3-pyridin-4-yl-9H-xanthen-9-yl)-8-aza-bicyclo[3.2.1]octane], for which the results for the Ki on mu opioid receptor and on delta opioid receptor were 196 nM and 1590 nM, respectively.

Regarding `c1cncc(-c2ccc3c(c2)Oc2ccccc2C3C2CC3CCC(C2)N3Cc2ccoc2)c1` (stereo not drawn) [Compound 4b, 8-Furan-3-ylmethyl-3-(3-pyridin-3-yl-9H-xanthen-9-yl)-8-aza-bicyclo[3.2.1]-octane], the Ki at mu opioid receptor worked out at 556 nM; on delta opioid receptor it was 29.2 nM.

`c1ccc(CN2C3CCC2CC(C2c4ccccc4Oc4cc(-c5ccncc5)ccc42)C3)nc1` (stereo not drawn) [Compound 22b, 8-Pyridin-2-ylmethyl-3-(3-pyridin-4-yl-9H-xanthen-9-yl)-8-aza-bicyclo[3.2.1]octane]: the Ki at mu opioid receptor turned out to be 305 nM; at delta opioid receptor it was 71.6 nM.

As for `c1ccc2c(c1)Oc1cc(-c3ccoc3)ccc1C2C1CC2CCC(C1)N2` (stereo not drawn) [Compound 5b, 3-(3-Furan-3-yl-9H-xanthen-9-yl)-8-aza-bicyclo[3.2.1]octane], the Ki on mu opioid receptor turned out to be 19700 nM; on delta opioid receptor it was 3450 nM.
